Results on five compounds are retold here after ChEMBL document CHEMBL4342486, “An Alkyne-functionalized Arginine for Solid-Phase Synthesis Enabling "Bioorthogonal" Peptide Conjugation” (ACS Med Chem Lett, 2020).

Data set [1] concerns the target Neurotensin receptor type 1 (Homo sapiens, UniProt P30989). Briefly: Displacement of [3H]UR-MK300 from human NTS1R expressed in human HT-29 cells incubated for 2 hrs by scintillation counting method. The format is cell-based.
Data set [2] can be described thus: Chemical stability of compound in PBS buffer at pH 7.4 at 100 uM incubated for 48 hrs by RP-HPLC analysis. It counts as physicochemical. The following applies: pH 7.4, 48 h.
Data set [3] addresses Neuropeptide Y receptor type 4 (Homo sapiens, UniProt P50391). Kind of data set: Displacement of [3H]UR-KK200 from human Y4R expressed in CHO cells incubated for 90 mins by microbeta scintillation counting method. It counts as cell-based.

Chain of Neurotensin receptor type 1 (P30989 whole entry): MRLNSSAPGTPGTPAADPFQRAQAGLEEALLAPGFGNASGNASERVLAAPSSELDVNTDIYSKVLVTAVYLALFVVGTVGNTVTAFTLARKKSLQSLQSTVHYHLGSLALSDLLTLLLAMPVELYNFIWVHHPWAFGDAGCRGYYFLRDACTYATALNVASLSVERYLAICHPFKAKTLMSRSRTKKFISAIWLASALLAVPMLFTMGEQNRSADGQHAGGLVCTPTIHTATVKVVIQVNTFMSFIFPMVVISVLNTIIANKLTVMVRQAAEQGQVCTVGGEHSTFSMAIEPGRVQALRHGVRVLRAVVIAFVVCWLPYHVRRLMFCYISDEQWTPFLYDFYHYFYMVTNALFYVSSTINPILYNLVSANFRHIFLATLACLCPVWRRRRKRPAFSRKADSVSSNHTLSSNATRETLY
Chain of Neuropeptide Y receptor type 4 (P50391 whole entry): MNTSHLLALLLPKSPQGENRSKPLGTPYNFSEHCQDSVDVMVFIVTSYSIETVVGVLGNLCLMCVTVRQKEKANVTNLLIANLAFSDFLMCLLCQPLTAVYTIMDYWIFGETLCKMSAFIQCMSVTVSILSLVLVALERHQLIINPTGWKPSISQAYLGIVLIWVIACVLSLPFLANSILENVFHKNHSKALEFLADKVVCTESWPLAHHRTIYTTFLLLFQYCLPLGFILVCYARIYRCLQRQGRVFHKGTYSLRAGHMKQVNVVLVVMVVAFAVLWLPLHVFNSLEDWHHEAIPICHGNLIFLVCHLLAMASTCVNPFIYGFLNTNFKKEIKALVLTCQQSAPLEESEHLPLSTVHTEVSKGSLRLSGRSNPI

`C#CCCCCNC(=O)NC(=N)NCCC[C@H](NC(=O)[C@@H](N)CCCNC(=N)N)C(=O)N1CCC[C@H]1C(=O)N[C@@H](Cc1ccc(O)cc1)C(=O)N[C@H](C(=O)N[C@@H](CC(C)C)C(=O)O)C(C)(C)C`: the Ki in data set [1] (read-out: Ki) is 9.4 nM.

As for `C#CCCCCNC(=O)NC(=N)NCCC[C@H](N)C(=O)N[C@@H](CCCNC(=N)N)C(=O)N1CCC[C@H]1C(=O)N[C@@H](Cc1ccc(O)cc1)C(=O)N[C@H](C(=O)N[C@@H](CC(C)C)C(=O)O)C(C)(C)C`, the results for the Ki in data set [1] (read-out: Ki) and in data set [1] (read-out: pKi (converted)) were 4.2 nM and 4.07 nM, respectively. Turning to `CC(C)C[C@H](NC(=O)[C@@H](NC(=O)[C@H](Cc1ccc(O)cc1)NC(=O)[C@@H]1CCCN1C(=O)[C@H](CCCNC(=N)N)NC(=O)[C@@H](N)CCCNC(=N)NC(=O)NCCCCc1cn(CCCNC(=O)CCCCCN2/C(=C/C=C/C=C/C3=[N+](C)c4ccc5c(S(=O)(=O)[O-])cc(S(=O)(=O)O)cc5c4C3(C)C)C(C)(C)c3c2ccc2c(S(=O)(=O)O)cc(S(=O)(=O)O)cc32)nn1)C(C)(C)C)C(=O)O`, in data set [1] (read-out: Ki), the Ki was found to be 50 nM. For the same compound, the Stability result in data set [2] is “Stable”. `CC(=O)N[C@@H](CCCNC(=N)NC(=O)NCCCCc1cn(CCCNC(=O)CCCCCN2/C(=C/C=C/C=C/C3=[N+](C)c4ccc5c(S(=O)(=O)[O-])cc(S(=O)(=O)O)cc5c4C3(C)C)C(C)(C)c3c2ccc2c(S(=O)(=O)O)cc(S(=O)(=O)O)cc32)nn1)C(=O)N[C@@H](Cc1ccc(O)cc1)C(=O)N[C@@H](CCCNC(=N)N)C(=O)N[C@@H](CC(C)C)C(=O)N[C@@H](CCCNC(=N)N)C(=O)N[C@@H](Cc1ccc(O)cc1)C(N)=O`: the Ki in data set [3] amounted to 33 nM. Further, the Stability result in data set [2] is given as “Stable”. `C#CCCCCNC(=O)NC(=N)NCCC[C@H](NC(=O)[C@H](CCCNC(=N)N)NC)C(=O)N1CCC[C@H]1C(=O)N[C@@H](Cc1ccc(O)cc1)C(=O)N[C@H](C(=O)N[C@@H](CC(C)C)C(=O)O)C(C)(C)C`: the values for the Ki in data set [1] (read-out: Ki) and in data set [1] (read-out: pKi (converted)) were 9.6 nM and 9.33 nM, respectively.
